Assay results from ChEMBL document CHEMBL4428075, “New antiproliferative 7-(4-(N-substituted carbamoylmethyl)piperazin-1-yl) derivatives of ciprofloxacin induce cell cycle arrest at G2/M phase” (Bioorg Med Chem, 2016).
Calls of active or inactive are those of the source. The calls are words filed in the database; no cut-off is given here.

Columns and labels:
[1] = test system: A549; assay: Induction of cell cycle arrest in human A549 cells assessed as accumulation at G2/M phase after 24 hrs by FITC-labeled FACS calibur flow cytometric analysis; format: functional, cell-based
[2] = test system: A549; assay: Induction of cell cycle arrest in human A549 cells assessed as accumulation at G1 phase at 5 uM after 24 hrs by FITC-labeled anti-BrdU antibody/7AAD staining based FACS calibur flow cytometric analysis (reference value: 65.9 %); format: functional
[3] = test system: A549; assay: Induction of cell cycle arrest in human A549 cells assessed as accumulation at sub G1 phase at 5 uM after 24 hrs by FITC-labeled anti-BrdU antibody/7AAD staining based FACS calibur flow cytometric analysis (reference value: 0.82 %); format: functional
[4] = test system: A549; assay: Induction of cell cycle arrest in human A549 cells assessed as accumulation at G1 phase at 10 uM after 24 hrs by FITC-labeled anti-BrdU antibody/7AAD staining based FACS calibur flow cytometric analysis (reference value: 65.9 %); format: functional
[5] = test system: A549; assay: Induction of cell cycle arrest in human A549 cells assessed as accumulation at sub G1 phase at 10 uM after 24 hrs by FITC-labeled anti-BrdU antibody/7AAD staining based FACS calibur flow cytometric analysis (reference value: 0.82 %); format: functional
[6] = test system: A549; assay: Induction of cell cycle arrest in human A549 cells assessed as accumulation at G2/M phase at 15 uM after 24 hrs by FITC-labeled anti-BrdU antibody/7AAD staining based FACS calibur flow cytometric analysis (reference value: 12.61 %); format: functional
[7] = test system: A549; assay: Induction of cell cycle arrest in human A549 cells assessed as accumulation at S phase at 15 uM after 24 hrs by FITC-labeled anti-BrdU antibody/7AAD staining based FACS calibur flow cytometric analysis (reference value: 20.9 %); format: functional
[8] = test system: A549; assay: Induction of cell cycle arrest in human A549 cells assessed as accumulation at G1 phase at 25 uM after 24 hrs by FITC-labeled anti-BrdU antibody/7AAD staining based FACS calibur flow cytometric analysis (reference value: 65.9 %); format: functional
[9] = test system: A549; assay: Downregulation of cyclinB1 expression in human A549 cells after 24 hrs by Western blot analysis; format: functional, cell-based
[10] = test system: A549; assay: Downregulation of cdc2 expression in human A549 cells after 24 hrs by Western blot analysis; format: functional, cell-based
[11] = test system: WI-38; assay: Upregulation of p53 expression human WI38 cells at 5 to 25 uM after 24 hrs by Western blot analysis; format: ADME, cell-based; settings: wi-38, 24 h
[12] = test system: WI-38; assay: Upregulation of p21 expression in human WI38 cells at 5 to 25 uM after 24 hrs by Western blot analysis; format: ADME, cell-based; settings: wi-38, 24 h
[13] = test system: A549; assay: Induction of p21 expression in human A549 cells at 25 uM after 24 hrs in presence of PFTalpha by Western blot analysis; format: functional, cell-based
[14] = test system: A549; assay: Induction of p53 expression in human A549 cells at 25 uM after 24 hrs in presence of PFTalpha by Western blot analysis; format: functional, cell-based
[15] = test system: A549; assay: Induction of cell cycle arrest in human A549 cells assessed accumulation at G2/M phase at 25 uM after 24 hrs by FITC-labeled anti-BrdU antibody/7AAD staining based FACS calibur flow cytometric analysis (reference value: 12%); format: functional
[16] = test system: A549; assay: Induction of cell cycle arrest in human A549 cells assessed accumulation at G2/M phase at 25 uM after 24 hrs in presence of PFTalpha by FITC-labeled anti-BrdU antibody/7AAD staining based FACS calibur flow cytometric analysis (reference value: 63.9%); format: functional

SMILES: O=C(CN1CCN(c2cc3c(cc2F)c(=O)c(C(=O)O)cn3C2CC2)CC1)Nc1ccc(Cl)cc1
- Activity [1]: Dose-dependent effect
- Activity [2]: 68.9%
- Activity [3]: 1.65%
- Activity [4]: 58.5%
- Activity [5]: 4.19%
- Activity [6]: 32.6%
- Activity [7]: 19.8%
- Activity [8]: 24.8%
- Activity [9]: Dose-dependent effect
- Activity [10]: Dose-dependent effect
- Activity [11]: Non-Toxic
- Activity [12]: Non-Toxic
- Activity [13]: inactive
- Activity [14]: inactive
- Activity [15]: 63.9%
- Activity [16]: 23.7%
